The values that follow come from US7704995B2 (Exelixis, Inc., priority 2003, dated 2010).

The assay addresses T1, Chk1 (Homo sapiens, UniProt O14757).
T1 construct: purchased Upstate Biotechnology
T1 sequence (O14757 1-476): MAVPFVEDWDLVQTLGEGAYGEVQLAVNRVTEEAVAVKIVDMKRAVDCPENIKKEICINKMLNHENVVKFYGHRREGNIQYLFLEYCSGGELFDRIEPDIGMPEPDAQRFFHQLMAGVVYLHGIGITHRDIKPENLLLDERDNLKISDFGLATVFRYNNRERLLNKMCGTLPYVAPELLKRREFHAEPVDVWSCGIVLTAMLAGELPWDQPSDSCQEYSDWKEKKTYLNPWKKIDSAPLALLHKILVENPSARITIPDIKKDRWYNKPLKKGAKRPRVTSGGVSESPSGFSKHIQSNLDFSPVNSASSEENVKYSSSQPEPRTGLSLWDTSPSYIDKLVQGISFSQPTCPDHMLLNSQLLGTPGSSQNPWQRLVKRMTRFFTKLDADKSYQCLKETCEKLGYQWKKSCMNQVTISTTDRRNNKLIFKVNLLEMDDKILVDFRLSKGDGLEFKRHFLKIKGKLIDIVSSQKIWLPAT
Kind of assay: Chk1 kinase assay: incorporation of γ-33P ATP into immobilized myelin basic protein. The note with it: Table 11; Chk1 only; read-out: Chk1 IC50. The assay is classed as biochemical. The method, boiled down:
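Plates coated with MBP, then kinase reactions in Hepes pH 7.6 buffer with 10 mM MgCl2 and 1% DMSO were started by adding unlabeled plus γ-33P ATP (10 μM for Chk1 at 10 nM enzyme; 30 μM for Chk2 at 20 nM enzyme). After 1 h at room temperature, plates were washed and counted.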

By IC50 is commonly meant the concentration at which inhibition is half-maximal.

A value given as a limit tells only on which side of the number the result lay.

As for `CNC(=O)c1nc(-c2cccc(CN[C@@H]3c4ccccc4C[C@@H]3OC)c2)cnc1N` [Example 468, 3-amino-N-methyl-6-[3-({[(1R,2S)-2-(methyloxy)-2,3-dihydro-1H-inden-1-yl]amino}methyl)phenyl]pyrazine-2-carboxamide], the concentration for half-maximal inhibition (IC50) was in the range of 50 to 1000 nM.

In the case of `CNC(=O)c1nc(-c2cccc(CNC3CCc4c(F)ccc(F)c43)c2)cnc1N` (stereo not shown) [Example 469, 3-amino-6-(3-{[(4,7-difluoro-2,3-dihydro-1H-inden-1-yl)amino]methyl}phenyl)-N-methylpyrazine-2-carboxamide], the half-maximal inhibitory concentration (IC50) is 50 to 1000 nM. For the molecule `CNC(=O)c1nc(-c2cccc(CNC3CCc4c(F)cc(Br)cc43)c2)cnc1N` (stereo not shown) [Example 470, 3-amino-6-(3-{[(6-bromo-4-fluoro-2,3-dihydro-1H-inden-1-yl)amino]methyl}phenyl)-N-methylpyrazine-2-carboxamide], the IC50 fell in the range of 50 to 1000 nM. In the case of `CNC(=O)c1nc(-c2cccc(CNC3CC(=O)c4ccccc43)c2)cnc1N` (stereo not shown) [Example 471, 3-amino-N-methyl-6-(3-{[(3-oxo-2,3-dihydro-1H-inden-1-yl)amino]methyl}phenyl)pyrazine-2-carboxamide], the IC50 was in the range of 50 to 1000 nM. Then `CNC(=O)c1nc(-c2cccc(CNC3CCc4cc(-c5ccco5)ccc43)c2)cnc1N` (stereo not shown) [Example 472, 3-amino-6-(3-{[(5-furan-2-yl-2,3-dihydro-1H-inden-1-yl)amino]methyl}phenyl)-N-methylpyrazine-2-carboxamide], with less than 50 nM. On to `CNC(=O)c1nc(-c2cccc(CNC3CCc4c(F)cccc43)c2)cnc1N` (stereo not shown) [Example 473, 3-amino-6-(3-{[(4-fluoro-2,3-dihydro-1H-inden-1-yl)amino]methyl}phenyl)-N-methylpyrazine-2-carboxamide], for which the IC50 was 50 to 1000 nM. With `CNC(=O)c1nc(-c2cccc(CNC3CCc4c(F)cc(F)cc43)c2)cnc1N` (stereo not shown) [Example 474, 3-amino-6-(3-{[(4,6-difluoro-2,3-dihydro-1H-inden-1-yl)amino]methyl}phenyl)-N-methylpyrazine-2-carboxamide], the half-inhibitory concentration (IC50) lay within 50 to 1000 nM. Turning to `CNC(=O)c1nc(-c2cccc(CNC3CCc4ccc(F)cc43)c2)cnc1N` (stereo not shown) [Example 475, 3-amino-6-(3-{[(6-fluoro-2,3-dihydro-1H-inden-1-yl)amino]methyl}phenyl)-N-methylpyrazine-2-carboxamide], the concentration for half-maximal inhibition (IC50) is less than 50 nM. `CNC(=O)c1nc(-c2cccc(CNC3CCc4cc(F)c(F)cc43)c2)cnc1N` (stereo not shown) [Example 476, 3-amino-6-(3-{[(5,6-difluoro-2,3-dihydro-1H-inden-1-yl)amino]methyl}phenyl)-N-methylpyrazine-2-carboxamide]: the IC50 fell in the range of 50 to 1000 nM. For the molecule `CNC(=O)c1nc(-c2cccc(CNC3CCc4cc(Cl)ccc43)c2)cnc1N` (stereo not shown) [Example 477, 3-amino-6-(3-{[(5-chloro-2,3-dihydro-1H-inden-1-yl)amino]methyl}phenyl)-N-methylpyrazine-2-carboxamide], the half-maximal inhibitory concentration (IC50) was less than 50 nM. On to `CNC(=O)c1nc(-c2cccc(CNC3CCc4cc(-c5cccs5)ccc43)c2)cnc1N` (stereo not shown) [Example 478, 3-amino-N-methyl-6-[3-({[5-(2-thienyl)-2,3-dihydro-1H-inden-1-yl]amino}methyl)phenyl]pyrazine-2-carboxamide], for which the IC50 is less than 50 nM. For the molecule `CNC(=O)c1nc(-c2cccc(CNC3CCc4cc(F)cc(F)c43)c2)cnc1N` (stereo not shown) [Example 479, 3-amino-6-(3-{[(5,7-difluoro-2,3-dihydro-1H-inden-1-yl)amino]methyl}phenyl)-N-methylpyrazine-2-carboxamide], the half-inhibitory concentration (IC50) was in the range of 50 to 1000 nM. On to `CNC(=O)c1nc(-c2cccc(CNC3CCc4cc(-c5ccoc5)ccc43)c2)cnc1N` (stereo not shown) [Example 480, 3-amino-6-(3-{[(5-furan-3-yl-2,3-dihydro-1H-inden-1-yl)amino]methyl}phenyl)-N-methylpyrazine-2-carboxamide], for which the IC50 was less than 50 nM. Then `CNC(=O)c1nc(-c2cccc(CNC3CCc4cc(-c5ccsc5)ccc43)c2)cnc1N` (stereo not shown) [Example 481, 3-amino-N-methyl-6-[3-({[5-(3-thienyl)-2,3-dihydro-1H-inden-1-yl]amino}methyl)phenyl]pyrazine-2-carboxamide], with less than 50 nM; and `CNC(=O)c1nc(-c2cccc(CN[C@H]3CCc4c(F)cccc43)c2)cnc1N` [Example 482, 3-amino-6-[3-({[(1S)-4-fluoro-2,3-dihydro-1H-inden-1-yl]amino}methyl)phenyl]-N-methylpyrazine-2-carboxamide], with less than 50 nM; and `CNC(=O)c1nc(-c2cccc(CN[C@H]3CCc4cc(F)cc(F)c43)c2)cnc1N` [Example 483, 3-amino-6-[3-({[(1S)-5,7-difluoro-2,3-dihydro-1H-inden-1-yl]amino}methyl)phenyl]-N-methylpyrazine-2-carboxamide], with 50 to 1000 nM. Turning to `CNC(=O)c1nc(-c2cccc(CNC3CCc4c(F)ccc(Br)c43)c2)cnc1N` (stereo not shown) [Example 484, 3-amino-6-(3-{[(7-bromo-4-fluoro-2,3-dihydro-1H-inden-1-yl)amino]methyl}phenyl)-N-methylpyrazine-2-carboxamide], the 50% inhibitory concentration (IC50) was 50 to 1000 nM. Then `CNC(=O)c1nc(-c2cccc(CNC3CCc4ccc(Cl)cc43)c2)cnc1N` (stereo not shown) [Example 485, 3-amino-6-(3-{[(6-chloro-2,3-dihydro-1H-inden-1-yl)amino]methyl}phenyl)-N-methylpyrazine-2-carboxamide], with 50 to 1000 nM; and `CNC(=O)c1nc(-c2cccc(CNC3CCc4c(Cl)cc(Cl)cc43)c2)cnc1N` (stereo not shown) [Example 486, 3-amino-6-(3-{[(4,6-dichloro-2,3-dihydro-1H-inden-1-yl)amino]methyl}phenyl)-N-methylpyrazine-2-carboxamide], with 50 to 1000 nM; and `CNC(=O)c1nc(-c2cccc(CNC3CCc4c(Cl)cccc43)c2)cnc1N` (stereo not shown) [Example 487, 3-amino-6-(3-{[(4-chloro-2,3-dihydro-1H-inden-1-yl)amino]methyl}phenyl)-N-methylpyrazine-2-carboxamide], with less than 50 nM. For `CCNC(=O)c1nc(-c2cccc(CN[C@H]3CCc4ccccc43)c2)cnc1N` [Example 488, 3-amino-6-(3-{[(1S)-2,3-dihydro-1H-inden-1-ylamino]methyl}phenyl)-N-ethylpyrazine-2-carboxamide], the IC50 lay within 50 to 1000 nM. As for `CCNC(=O)c1nc(-c2cccc(CNC3CCc4cc(F)cc(F)c43)c2)cnc1N` (stereo not shown) [Example 489, 3-amino-6-(3-{[(5,7-difluoro-2,3-dihydro-1H-inden-1-yl)amino]methyl}phenyl)-N-ethylpyrazine-2-carboxamide], the IC50 lay within 50 to 1000 nM. Consider `CNC(=O)c1nc(-c2cccc(CN[C@H]3CCc4cc(-c5cccs5)ccc43)c2)cnc1N` [Example 490, 3-amino-N-methyl-6-[3-({[(1S)-5-(2-thienyl)-2,3-dihydro-1H-inden-1-yl]amino}methyl)phenyl]pyrazine-2-carboxamide], for which the IC50 was less than 50 nM. For `CNC(=O)c1nc(-c2cccc(CNC3CCc4cc(-c5ccccc5)ccc43)c2)cnc1N` (stereo not shown) [Example 491, 3-amino-N-methyl-6-(3-{[(5-phenyl-2,3-dihydro-1H-inden-1-yl)amino]methyl}phenyl)pyrazine-2-carboxamide], the IC50 was 50 to 1000 nM. As to `CNC(=O)c1nc(-c2cccc(CNC3CCc4c(Br)cccc43)c2)cnc1N` (stereo not shown) [Example 492, 3-amino-6-(3-{[(4-bromo-2,3-dihydro-1H-inden-1-yl)amino]methyl}phenyl)-N-methylpyrazine-2-carboxamide], the half-maximal inhibitory concentration (IC50) was less than 50 nM. Regarding `CNC(=O)c1nc(-c2cccc(CNC3CCc4c(-c5ccccc5)cccc43)c2)cnc1N` (stereo not shown) [Example 493, 3-amino-N-methyl-6-(3-{[(4-phenyl-2,3-dihydro-1H-inden-1-yl)amino]methyl}phenyl)pyrazine-2-carboxamide], the IC50 is less than 50 nM. Consider `CNC(=O)c1nc(-c2cccc(CNC3CCc4c(-c5cccs5)cccc43)c2)cnc1N` (stereo not shown) [Example 494, 3-amino-N-methyl-6-[3-({[4-(2-thienyl)-2,3-dihydro-1H-inden-1-yl]amino}methyl)phenyl]pyrazine-2-carboxamide], for which the IC50 is less than 50 nM. The result for `CNC(=O)c1nc(-c2cccc(CNC3CCc4ccc(-c5cccs5)cc43)c2)cnc1N` (stereo not shown) [Example 495, 3-amino-N-methyl-6-[3-({[6-(2-thienyl)-2,3-dihydro-1H-inden-1-yl]amino}methyl)phenyl]pyrazine-2-carboxamide] reads 50 to 1000 nM; that for `CNC(=O)c1nc(-c2cccc(CNC3CCc4cc(-c5cc(C)cs5)ccc43)c2)cnc1N` (stereo not shown) [Example 496, 3-amino-N-methyl-6-[3-({[5-(4-methyl-2-thienyl)-2,3-dihydro-1H-inden-1-yl]amino}methyl)phenyl]pyrazine-2-carboxamide], less than 50 nM; that for `CNC(=O)c1nc(-c2cccc(CN[C@@H]3CCc4cc(-c5ccccc5)ccc4C3)c2)cnc1N` [Example 497, 3-amino-N-methyl-6-[3-({[(2R)-6-phenyl-1,2,3,4-tetrahydronaphthalen-2-yl]amino}methyl)phenyl]pyrazine-2-carboxamide], 50 to 1000 nM.

Turning to `CNC(=O)c1nc(-c2ccc3ccccc3c2)cnc1N` [Example 498, 3-amino-N-methyl-6-naphthalen-2-ylpyrazine-2-carboxamide], the 50% inhibitory concentration (IC50) lay within 50 to 1000 nM.
